{"source": "the supplement of paper PMC10307832", "data": [{"compound": "c1ccc2c(CCNc3ccc(Nc4ccncc4)cc3)c[nH]c2c1 [Serdemetan] + CC(=O)Nc1cccc(-n2c(=O)n(C3CC3)c(=O)c3c(Nc4ccc(I)cc4F)n(C)c(=O)c(C)c32)c1 [Trametinib] (partner 0.02 µM)", "assay": "relative viability (nuclei count vs DMSO), 5 days (fraction); higher = more cells survive", "conditions": "first compound 0.04 µM", "how_it_was_run": "(§1)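 Dosing by pin tool came one day after lung cancer cell lines were seeded in 1536-well plates, using either one drug or a fixed anchor-drug dose plus five library-drug doses (not always all listed) in √10 steps. After 5 days, nuclei were counted on 4× images. Relative viability is treated-well nuclei count divided by vehicle-well nuclei count, and values are medians of duplicate plates.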", "values": [{"cell line": "NCI-H2009", "relative viability": 0.248}, {"cell line": "A-427", "relative viability": 0.699}, {"cell line": "NCI-H441", "relative viability": 0.462}, {"cell line": "NCI-H661", "relative viability": 0.551}, {"cell line": "NCI-H1734", "relative viability": 0.555}, {"cell line": "NCI-H460", "relative viability": 0.0926}, {"cell line": "NCI-H2347", "relative viability": 0.286}, {"cell line": "SK-LU-1", "relative viability": 0.485}, {"cell line": "NCI-H1395", "relative viability": 0.982}, {"cell line": "201T", "relative viability": 0.769}, {"cell line": "NCI-H1915", "relative viability": 0.3}, {"cell line": "HCC-827", "relative viability": 0.543}, {"cell line": "LXF-289", "relative viability": 0.638}, {"cell line": "NCI-H23", "relative viability": 0.354}, {"cell line": "NCI-H647", "relative viability": 0.482}, {"cell line": "CAL-12T", "relative viability": 0.447}, {"cell line": "NCI-H1651", "relative viability": 0.848}, {"cell line": "EPLC-272H", "relative viability": 0.32}, {"cell line": "NCI-H2228", "relative viability": 0.564}, {"cell line": "NCI-H1792", "relative viability": 0.401}, {"cell line": "NCI-H1355", "relative viability": 0.411}, {"cell line": "NCI-H3122", "relative viability": 0.246}, {"cell line": "NCI-H1437", "relative viability": 0.466}, {"cell line": "NCI-H1755", "relative viability": 0.762}, {"cell line": "NCI-H2023", "relative viability": 0.616}, {"cell line": "HCC-15", "relative viability": 0.402}, {"cell line": "NCI-H1793", "relative viability": 0.447}, {"cell line": "PC-14", "relative viability": 0.798}, {"cell line": "EKVX", "relative viability": 0.45}, {"cell line": "LC-2-ad", "relative viability": 0.86}, {"cell line": "NCI-H1944", "relative viability": 0.424}]}, {"compound": "c1ccc2c(CCNc3ccc(Nc4ccncc4)cc3)c[nH]c2c1 [Serdemetan] + CC(=O)Nc1cccc(-n2c(=O)n(C3CC3)c(=O)c3c(Nc4ccc(I)cc4F)n(C)c(=O)c(C)c32)c1 [Trametinib] (partner 0.02 µM)", "assay": "relative viability (nuclei count vs DMSO), 5 days (fraction); higher = more cells survive", "conditions": "first compound 0.1265 µM", "how_it_was_run": "as §1", "values": [{"cell line": "HARA", "relative viability": 0.658}, {"cell line": "NCI-H322M", "relative viability": 0.528}, {"cell line": "LCLC-97TM1", "relative viability": 0.193}, {"cell line": "NCI-H2009", "relative viability": 0.284}, {"cell line": "A-427", "relative viability": 0.732}, {"cell line": "NCI-H441", "relative viability": 0.508}, {"cell line": "NCI-H661", "relative viability": 0.603}, {"cell line": "NCI-H1734", "relative viability": 0.358}, {"cell line": "NCI-H460", "relative viability": 0.172}, {"cell line": "NCI-H2347", "relative viability": 0.253}, {"cell line": "SK-LU-1", "relative viability": 0.464}, {"cell line": "NCI-H1395", "relative viability": 0.954}, {"cell line": "201T", "relative viability": 0.687}, {"cell line": "NCI-H1915", "relative viability": 0.309}, {"cell line": "HCC-827", "relative viability": 0.603}, {"cell line": "LXF-289", "relative viability": 0.624}, {"cell line": "NCI-H23", "relative viability": 0.399}, {"cell line": "NCI-H647", "relative viability": 0.475}, {"cell line": "CAL-12T", "relative viability": 0.335}, {"cell line": "NCI-H1651", "relative viability": 0.784}, {"cell line": "EPLC-272H", "relative viability": 0.281}, {"cell line": "NCI-H2228", "relative viability": 0.523}, {"cell line": "NCI-H1792", "relative viability": 0.458}, {"cell line": "NCI-H1355", "relative viability": 0.478}, {"cell line": "NCI-H3122", "relative viability": 0.238}, {"cell line": "NCI-H1437", "relative viability": 0.527}, {"cell line": "NCI-H1755", "relative viability": 0.703}, {"cell line": "NCI-H2023", "relative viability": 0.538}, {"cell line": "HCC-15", "relative viability": 0.397}, {"cell line": "NCI-H1793", "relative viability": 0.375}, {"cell line": "PC-14", "relative viability": 0.747}, {"cell line": "EKVX", "relative viability": 0.396}, {"cell line": "LC-2-ad", "relative viability": 0.909}, {"cell line": "NCI-H1944", "relative viability": 0.39}]}, {"compound": "c1ccc2c(CCNc3ccc(Nc4ccncc4)cc3)c[nH]c2c1 [Serdemetan] + CC(=O)Nc1cccc(-n2c(=O)n(C3CC3)c(=O)c3c(Nc4ccc(I)cc4F)n(C)c(=O)c(C)c32)c1 [Trametinib] (partner 0.02 µM)", "assay": "relative viability (nuclei count vs DMSO), 5 days (fraction); higher = more cells survive", "conditions": "first compound 0.4 µM", "how_it_was_run": "as §1", "values": [{"cell line": "HARA", "relative viability": 0.649}, {"cell line": "NCI-H322M", "relative viability": 0.488}, {"cell line": "LCLC-97TM1", "relative viability": 0.177}, {"cell line": "NCI-H2009", "relative viability": 0.243}, {"cell line": "A-427", "relative viability": 0.877}, {"cell line": "NCI-H441", "relative viability": 0.436}, {"cell line": "NCI-H661", "relative viability": 0.621}, {"cell line": "NCI-H1734", "relative viability": 0.246}, {"cell line": "NCI-H460", "relative viability": 0.134}, {"cell line": "NCI-H2347", "relative viability": 0.289}, {"cell line": "SK-LU-1", "relative viability": 0.444}, {"cell line": "NCI-H1395", "relative viability": 0.972}, {"cell line": "201T", "relative viability": 0.736}, {"cell line": "NCI-H1915", "relative viability": 0.286}, {"cell line": "LXF-289", "relative viability": 0.652}, {"cell line": "NCI-H23", "relative viability": 0.426}, {"cell line": "NCI-H647", "relative viability": 0.558}, {"cell line": "CAL-12T", "relative viability": 0.334}, {"cell line": "NCI-H1651", "relative viability": 0.775}, {"cell line": "EPLC-272H", "relative viability": 0.28}, {"cell line": "NCI-H2228", "relative viability": 0.327}, {"cell line": "NCI-H1792", "relative viability": 0.304}, {"cell line": "NCI-H1355", "relative viability": 0.367}, {"cell line": "NCI-H3122", "relative viability": 0.252}, {"cell line": "NCI-H1437", "relative viability": 0.526}, {"cell line": "NCI-H1755", "relative viability": 0.744}, {"cell line": "NCI-H2023", "relative viability": 0.522}, {"cell line": "HCC-15", "relative viability": 0.361}, {"cell line": "NCI-H1793", "relative viability": 0.346}, {"cell line": "LC-2-ad", "relative viability": 0.884}, {"cell line": "NCI-H1944", "relative viability": 0.332}]}, {"compound": "c1ccc2c(CCNc3ccc(Nc4ccncc4)cc3)c[nH]c2c1 [Serdemetan] + CC(=O)Nc1cccc(-n2c(=O)n(C3CC3)c(=O)c3c(Nc4ccc(I)cc4F)n(C)c(=O)c(C)c32)c1 [Trametinib] (partner 0.02 µM)", "assay": "relative viability (nuclei count vs DMSO), 5 days (fraction); higher = more cells survive", "conditions": "first compound 1.265 µM", "how_it_was_run": "as §1", "values": [{"cell line": "HARA", "relative viability": 0.42}, {"cell line": "NCI-H322M", "relative viability": 0.427}, {"cell line": "LCLC-97TM1", "relative viability": 0.167}, {"cell line": "NCI-H2009", "relative viability": 0.266}, {"cell line": "A-427", "relative viability": 0.698}, {"cell line": "NCI-H441", "relative viability": 0.435}, {"cell line": "NCI-H661", "relative viability": 0.512}, {"cell line": "NCI-H1734", "relative viability": 0.147}, {"cell line": "NCI-H460", "relative viability": 0.0472}, {"cell line": "NCI-H2347", "relative viability": 0.259}, {"cell line": "SK-LU-1", "relative viability": 0.332}, {"cell line": "NCI-H1395", "relative viability": 0.904}, {"cell line": "201T", "relative viability": 0.653}, {"cell line": "NCI-H1915", "relative viability": 0.257}, {"cell line": "HCC-827", "relative viability": 0.359}, {"cell line": "LXF-289", "relative viability": 0.621}, {"cell line": "NCI-H647", "relative viability": 0.361}, {"cell line": "CAL-12T", "relative viability": 0.365}, {"cell line": "NCI-H1651", "relative viability": 0.433}, {"cell line": "EPLC-272H", "relative viability": 0.292}, {"cell line": "NCI-H2228", "relative viability": 0.115}, {"cell line": "NCI-H1792", "relative viability": 0.248}, {"cell line": "NCI-H1355", "relative viability": 0.394}, {"cell line": "NCI-H3122", "relative viability": 0.245}, {"cell line": "NCI-H1437", "relative viability": 0.372}, {"cell line": "NCI-H1755", "relative viability": 0.572}, {"cell line": "NCI-H2023", "relative viability": 0.223}, {"cell line": "HCC-15", "relative viability": 0.334}, {"cell line": "NCI-H1793", "relative viability": 0.227}, {"cell line": "PC-14", "relative viability": 0.647}, {"cell line": "LC-2-ad", "relative viability": 0.86}, {"cell line": "NCI-H1944", "relative viability": 0.274}]}, {"compound": "c1ccc2c(CCNc3ccc(Nc4ccncc4)cc3)c[nH]c2c1 [Serdemetan] + CC(=O)Nc1cccc(-n2c(=O)n(C3CC3)c(=O)c3c(Nc4ccc(I)cc4F)n(C)c(=O)c(C)c32)c1 [Trametinib] (partner 0.02 µM)", "assay": "relative viability (nuclei count vs DMSO), 5 days (fraction); higher = more cells survive", "conditions": "first compound 4 µM", "how_it_was_run": "as §1", "values": [{"cell line": "HARA", "relative viability": 0.641}, {"cell line": "NCI-H322M", "relative viability": 0.431}, {"cell line": "LCLC-97TM1", "relative viability": 0.171}, {"cell line": "NCI-H2009", "relative viability": 0.281}, {"cell line": "A-427", "relative viability": 0.506}, {"cell line": "NCI-H441", "relative viability": 0.414}, {"cell line": "NCI-H661", "relative viability": 0.517}, {"cell line": "NCI-H1734", "relative viability": 0.161}, {"cell line": "NCI-H460", "relative viability": 0.0554}, {"cell line": "NCI-H2347", "relative viability": 0.25}, {"cell line": "SK-LU-1", "relative viability": 0.44}, {"cell line": "NCI-H1395", "relative viability": 0.586}, {"cell line": "201T", "relative viability": 0.631}, {"cell line": "NCI-H1915", "relative viability": 0.242}, {"cell line": "HCC-827", "relative viability": 0.318}, {"cell line": "LXF-289", "relative viability": 0.503}, {"cell line": "NCI-H23", "relative viability": 0.363}, {"cell line": "NCI-H647", "relative viability": 0.304}, {"cell line": "CAL-12T", "relative viability": 0.308}, {"cell line": "NCI-H1651", "relative viability": 0.256}, {"cell line": "EPLC-272H", "relative viability": 0.25}, {"cell line": "NCI-H2228", "relative viability": 0.172}, {"cell line": "NCI-H1792", "relative viability": 0.142}, {"cell line": "NCI-H1355", "relative viability": 0.374}, {"cell line": "NCI-H3122", "relative viability": 0.206}, {"cell line": "NCI-H1437", "relative viability": 0.424}, {"cell line": "NCI-H1755", "relative viability": 0.474}, {"cell line": "NCI-H2023", "relative viability": 0.298}, {"cell line": "HCC-15", "relative viability": 0.317}, {"cell line": "NCI-H1793", "relative viability": 0.267}, {"cell line": "PC-14", "relative viability": 0.601}, {"cell line": "EKVX", "relative viability": 0.268}, {"cell line": "LC-2-ad", "relative viability": 0.705}, {"cell line": "NCI-H1944", "relative viability": 0.278}]}, {"compound": "c1ccc2c(CCNc3ccc(Nc4ccncc4)cc3)c[nH]c2c1 [Serdemetan] + CCNC(=O)c1noc(-c2cc(C(C)C)c(O)cc2O)c1-c1ccc(CN2CCOCC2)cc1 [Luminespib] (partner 0.01 µM)", "assay": "relative viability (nuclei count vs DMSO), 5 days (fraction); higher = more cells survive", "conditions": "first compound 0.04 µM", "how_it_was_run": "as §1", "values": [{"cell line": "HARA", "relative viability": 0.767}]}]}
